{
  "source": "patent US12304890B2",
  "about": "“R-type pyridyloxycarboxylic acid, salt and ester derivative thereof, and preparation method therefor, and herbicidal composition and application thereof” (Qingdao Kingagroot Chemical Compound Co., Ltd., priority 2018, dated 2025)",
  "tested_on": "Monocotyledonous and dicotyledonous weed seeds and main crop seeds",
  "assay": "Post-emergence test experiment, other weeds and crops (Table 4, 1000 g a.i./ha)",
  "format": "in vivo",
  "conditions": "3 weeks in greenhouse, fresh weight inhibition",
  "procedure": "The above described growth inhibition rate is fresh weight inhibition rate.\nPost-emergence test experiment: Monocotyledonous and dicotyledonous weed seeds and main crop seeds (i. e. wheat, corn, rice, soybean, cotton, oilseed, millet and sorghum.) were put into a plastic pot loaded with soil. Then covered with 0.5-2 cm soil, the seeds were allowed to grow in good greenhouse environment. The test plants were treated at 2-3 leaf stage 2 weeks after sowing. The test compounds of the invention were dissolved with acetone respectively, then added with tween-80, and using 1.5 liters per hectare of an emulsible concentrate of methyl oleate as a synergist, and diluted by certain amount of water to certain concentration. The solution was sprayed to the plants with a sprayer.",
  "data": [
    {"smiles": "COC(=O)C(Oc1nc(F)c(Cl)c(N)c1Cl)C(F)(F)F", "note": "(stereo not drawn) [Compound 2-39]", "values": [
      {"measurement": "Activity level (growth inhibition rate), Abutilon theophrasti Medic.", "result": "5 (Level 5: the growth inhibition rate is greater than 85%)"},
      {"measurement": "Activity level (growth inhibition rate), Galium aparine", "result": "5 (Level 5: the growth inhibition rate is greater than 85%)"},
      {"measurement": "Activity level (growth inhibition rate), Monochoria Vaginalis", "result": "5 (Level 5: the growth inhibition rate is greater than 85%)"}
    ]},
    {"smiles": "CCC(Oc1nc(F)c(Cl)c(N)c1Cl)C(=O)[O-].C[N+](C)(C)Cc1ccccc1", "note": "(stereo not drawn) [Compound 2-5]", "values": [
      {"measurement": "Activity level (growth inhibition rate), Abutilon theophrasti Medic.", "result": "5 (Level 5: the growth inhibition rate is greater than 85%)"},
      {"measurement": "Activity level (growth inhibition rate), Galium aparine", "result": "5 (Level 5: the growth inhibition rate is greater than 85%)"},
      {"measurement": "Activity level (growth inhibition rate), Monochoria Vaginalis", "result": "5 (Level 5: the growth inhibition rate is greater than 85%)"}
    ]},
    {"smiles": "COC(=O)[C@H](Oc1nc(F)c(Cl)c(N)c1Cl)c1cccc(Cl)c1", "note": "[Compound 2-64]", "values": [
      {"measurement": "Activity level (growth inhibition rate), Abutilon theophrasti Medic.", "result": "5 (Level 5: the growth inhibition rate is greater than 85%)"},
      {"measurement": "Activity level (growth inhibition rate), Galium aparine", "result": "5 (Level 5: the growth inhibition rate is greater than 85%)"},
      {"measurement": "Activity level (growth inhibition rate), Monochoria Vaginalis", "result": "5 (Level 5: the growth inhibition rate is greater than 85%)"}
    ]},
    {"smiles": "C#CC(Oc1nc(F)c(Cl)c(N)c1Cl)C(=O)OC", "note": "(stereo not drawn) [Compound 2-46]", "values": [
      {"measurement": "Activity level (growth inhibition rate), Abutilon theophrasti Medic.", "result": "5 (Level 5: the growth inhibition rate is greater than 85%)"},
      {"measurement": "Activity level (growth inhibition rate), Galium aparine", "result": "5 (Level 5: the growth inhibition rate is greater than 85%)"},
      {"measurement": "Activity level (growth inhibition rate), Monochoria Vaginalis", "result": "5 (Level 5: the growth inhibition rate is greater than 85%)"}
    ]},
    {"smiles": "C=C[C@@H](Oc1nc(F)c(Cl)c(N)c1Cl)C(=O)OC", "note": "[Compound 2-45]", "values": [
      {"measurement": "Activity level (growth inhibition rate), Abutilon theophrasti Medic.", "result": "5 (Level 5: the growth inhibition rate is greater than 85%)"},
      {"measurement": "Activity level (growth inhibition rate), Galium aparine", "result": "5 (Level 5: the growth inhibition rate is greater than 85%)"},
      {"measurement": "Activity level (growth inhibition rate), Monochoria Vaginalis", "result": "5 (Level 5: the growth inhibition rate is greater than 85%)"}
    ]},
    {"smiles": "C[N+](C)(C)CCO.Nc1c(Cl)c(F)nc(O[C@@H](C(=O)[O-])c2ccccc2)c1Cl", "note": "[Compound 2-6]", "values": [
      {"measurement": "Activity level (growth inhibition rate), Abutilon theophrasti Medic.", "result": "5 (Level 5: the growth inhibition rate is greater than 85%)"},
      {"measurement": "Activity level (growth inhibition rate), Galium aparine", "result": "5 (Level 5: the growth inhibition rate is greater than 85%)"},
      {"measurement": "Activity level (growth inhibition rate), Monochoria Vaginalis", "result": "5 (Level 5: the growth inhibition rate is greater than 85%)"}
    ]},
    {"smiles": "COC(=O)C(CC(F)(F)F)Oc1nc(F)c(Cl)c(N)c1Cl", "note": "(stereo not drawn) [Compound 2-40]", "values": [
      {"measurement": "Activity level (growth inhibition rate), Abutilon theophrasti Medic.", "result": "5 (Level 5: the growth inhibition rate is greater than 85%)"},
      {"measurement": "Activity level (growth inhibition rate), Galium aparine", "result": "5 (Level 5: the growth inhibition rate is greater than 85%)"},
      {"measurement": "Activity level (growth inhibition rate), Monochoria Vaginalis", "result": "5 (Level 5: the growth inhibition rate is greater than 85%)"}
    ]},
    {"smiles": "NCCOCCO.Nc1c(Cl)c(F)nc(O[C@@H](C(=O)O)c2ccccc2)c1Cl", "note": "[Compound 2-11]", "values": [
      {"measurement": "Activity level (growth inhibition rate), Abutilon theophrasti Medic.", "result": "5 (Level 5: the growth inhibition rate is greater than 85%)"},
      {"measurement": "Activity level (growth inhibition rate), Galium aparine", "result": "5 (Level 5: the growth inhibition rate is greater than 85%)"},
      {"measurement": "Activity level (growth inhibition rate), Monochoria Vaginalis", "result": "5 (Level 5: the growth inhibition rate is greater than 85%)"}
    ]},
    {"smiles": "NCCNCCNCCN", "note": "[Compound 2-18, triethylenetetramine]", "values": [
      {"measurement": "Activity level (growth inhibition rate), Abutilon theophrasti Medic.", "result": "5 (Level 5: the growth inhibition rate is greater than 85%)"},
      {"measurement": "Activity level (growth inhibition rate), Galium aparine", "result": "5 (Level 5: the growth inhibition rate is greater than 85%)"},
      {"measurement": "Activity level (growth inhibition rate), Monochoria Vaginalis", "result": "5 (Level 5: the growth inhibition rate is greater than 85%)"}
    ]},
    {"smiles": "CCCCOCCN", "note": "[Compound 2-21, 2-butoxyethylamine]", "values": [
      {"measurement": "Activity level (growth inhibition rate), Abutilon theophrasti Medic.", "result": "5 (Level 5: the growth inhibition rate is greater than 85%)"},
      {"measurement": "Activity level (growth inhibition rate), Galium aparine", "result": "5 (Level 5: the growth inhibition rate is greater than 85%)"},
      {"measurement": "Activity level (growth inhibition rate), Monochoria Vaginalis", "result": "5 (Level 5: the growth inhibition rate is greater than 85%)"}
    ]}
  ]
}
